Measurements as given in US7507730B2, “Substituted pyrazolo[1,5-a]pyrimidines as potassium channel activators” (Bristol-Myers Squibb Company, priority 2005, dated 2009).

biological target: Kv1.5 (Homo sapiens, UniProt P22460); assay: Kv1.5 inhibition assay (IKur inhibitor assay per cited references); format: cell-based; conditions: at 0.3 μM
Description: Assays to determine the degree of activity of a compound as an IKur inhibitor are well known in the art and are described in references such as J. Gen. Physiol. Apr.; 101 (4):513-43, and Br. J. Pharmacol. 1995 May; 115(2):267-74.

Kv1.5, sequence (P22460 whole entry): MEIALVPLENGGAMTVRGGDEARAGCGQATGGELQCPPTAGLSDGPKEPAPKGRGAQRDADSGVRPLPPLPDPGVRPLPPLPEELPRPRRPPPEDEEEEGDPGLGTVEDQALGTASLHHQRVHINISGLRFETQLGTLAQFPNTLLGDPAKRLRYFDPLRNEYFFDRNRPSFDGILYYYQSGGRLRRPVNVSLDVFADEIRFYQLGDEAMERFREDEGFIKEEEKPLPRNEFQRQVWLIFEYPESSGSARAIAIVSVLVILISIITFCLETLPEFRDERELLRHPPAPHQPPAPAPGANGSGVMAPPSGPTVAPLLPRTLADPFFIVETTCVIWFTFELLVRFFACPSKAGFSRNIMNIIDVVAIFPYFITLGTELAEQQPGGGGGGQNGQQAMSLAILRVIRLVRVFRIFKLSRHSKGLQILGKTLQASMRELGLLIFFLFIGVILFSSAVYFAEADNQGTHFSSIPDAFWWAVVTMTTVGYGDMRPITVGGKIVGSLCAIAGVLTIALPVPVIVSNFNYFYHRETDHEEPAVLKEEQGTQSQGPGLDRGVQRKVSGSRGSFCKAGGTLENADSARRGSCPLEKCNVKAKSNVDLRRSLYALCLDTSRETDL

Structure (SMILES) | inhibition at 0.3 µM | Kv1.5% inhibition
CC1=C(S(=O)(=O)NCc2ccccc2)C(c2ccc(Cl)cc2)n2nc(C)cc2N1 (single isomer, unassigned) [Example 55 Isomer 1, N-Benzyl-7-(4-chlorophenyl)-2,5-dimethyl-4,7-dihydropyrazolo[1,5-a]pyrimidine-6-sulfonamide] | 22.9% | –
CC1=C(S(=O)(=O)NCc2ccccc2)C(c2ccc(Cl)cc2)n2nc(C)cc2N1 (single isomer, unassigned) [Example 55 Isomer 2, N-Benzyl-7-(4-chlorophenyl)-2,5-dimethyl-4,7-dihydropyrazolo[1,5-a]pyrimidine-6-sulfonamide] | – | 17.2%
CC1=C(S(=O)(=O)NCc2ccccc2)C(c2ccc(Cl)c(Cl)c2)n2nc(C(F)(F)F)cc2N1 (single isomer, unassigned) [Example 56 Isomer 1, N-Benzyl-7-(3,4-dichlorophenyl)-5-methyl-2-(trifluoromethyl)-4,7-dihydropyrazolo[1,5-a]pyrimidine-6-sulfonamide] | 50% | –
CC1=C(S(=O)(=O)NCc2ccccc2)C(c2ccc(Cl)c(Cl)c2)n2nc(C(F)(F)F)cc2N1 (single isomer, unassigned) [Example 56 Isomer 2, N-Benzyl-7-(3,4-dichlorophenyl)-5-methyl-2-(trifluoromethyl)-4,7-dihydropyrazolo[1,5-a]pyrimidine-6-sulfonamide] | – | 37.5%
CC1=C(S(=O)(=O)NC(C)(C)C)C(c2ccc(Cl)cc2)n2nc(C(F)(F)F)cc2N1 (single isomer, unassigned) [Example 57 Isomer 1, N-tert-Butyl-7-(4-chlorophenyl)-5-methyl-2-(trifluoromethyl)-4,7-dihydropyrazolo[1,5-a]pyrimidine-6-sulfonamide] | 48.6% | –
CC1=C(S(=O)(=O)NC(C)(C)C)C(c2ccc(Cl)cc2)n2nc(C(F)(F)F)cc2N1 (single isomer, unassigned) [Example 57 Isomer 2, N-tert-Butyl-7-(4-chlorophenyl)-5-methyl-2-(trifluoromethyl)-4,7-dihydropyrazolo[1,5-a]pyrimidine-6-sulfonamide] | – | 36.9%
CC1=C(S(=O)(=O)NC(C)(C)C)C(c2ccc(Cl)c(Cl)c2)n2nc(C(F)(F)F)cc2N1 (single isomer, unassigned) [Example 58 Isomer 1, N-tert-Butyl-7-(3,4-dichlorophenyl)-5-methyl-2-(trifluoromethyl)-4,7-dihydropyrazolo[1,5-a]pyrimidine-6-sulfonamide] | 42.9% | –
CC1=C(S(=O)(=O)NC(C)(C)C)C(c2ccc(Cl)c(Cl)c2)n2nc(C(F)(F)F)cc2N1 (single isomer, unassigned) [Example 58 Isomer 2, N-tert-Butyl-7-(3,4-dichlorophenyl)-5-methyl-2-(trifluoromethyl)-4,7-dihydropyrazolo[1,5-a]pyrimidine-6-sulfonamide] | – | 37.7%
CC1=C(S(=O)(=O)N2CCCC2)C(c2ccc(Cl)c(Cl)c2)n2nc(C(F)(F)F)cc2N1 (single isomer, unassigned) [Example 59 Isomer 1, 7-(3,4-Dichlorophenyl)-5-methyl-6-(pyrrolidin-1-ylsulfonyl)-2-(trifluoromethyl)-4,7-dihydropyrazolo[1,5-a]pyrimidine] | 89.8% | –
CC1=C(S(=O)(=O)N2CCCC2)C(c2ccc(Cl)c(Cl)c2)n2nc(C(F)(F)F)cc2N1 (single isomer, unassigned) [Example 59 Isomer 2, 7-(3,4-Dichlorophenyl)-5-methyl-6-(pyrrolidin-1-ylsulfonyl)-2-(trifluoromethyl)-4,7-dihydropyrazolo[1,5-a]pyrimidine] | – | 86.4%
CCN(CC)S(=O)(=O)C1=C(C)Nc2cc(C)nn2C1c1ccc(Cl)c(Cl)c1 (single isomer, unassigned) [Example 61 Isomer 1, 7-(3,4-Dichlorophenyl)-N,N-diethyl-2,5-dimethyl-4,7-dihydropyrazolo[1,5-a]pyrimidine-6-sulfonamide] | – | 90.5%
CCN(CC)S(=O)(=O)C1=C(C)Nc2cc(C)nn2C1c1ccc(Cl)c(Cl)c1 (single isomer, unassigned) [Example 61 Isomer 2, 7-(3,4-Dichlorophenyl)-N,N-diethyl-2,5-dimethyl-4,7-dihydropyrazolo[1,5-a]pyrimidine-6-sulfonamide] | – | 42.3%
CC1=C(S(=O)(=O)N(C)c2ccccc2)C(c2ccc(Cl)c(Cl)c2)n2nc(C(F)(F)F)cc2N1 (single isomer, unassigned) [Example 63 Isomer 1, 7-(3,4-Dichlorophenyl)-N,5-dimethyl-N-phenyl-2-(trifluoromethyl)-4,7-dihydropyrazolo[1,5-a]pyrimidine-6-sulfonamide] | 30% | –
CC1=C(S(=O)(=O)N(C)c2ccccc2)C(c2ccc(Cl)c(Cl)c2)n2nc(C(F)(F)F)cc2N1 (single isomer, unassigned) [Example 63 Isomer 2, 7-(3,4-Dichlorophenyl)-N,5-dimethyl-N-phenyl-2-(trifluoromethyl)-4,7-dihydropyrazolo[1,5-a]pyrimidine-6-sulfonamide] | – | 31%
CCN(CC)S(=O)(=O)C1=C(C)Nc2cc(C(F)(F)F)nn2C1c1ccc(Cl)c(Cl)c1 (single isomer, unassigned) [Example 64 Isomer 1, 7-(3,4-Dichlorophenyl)-N,N-diethyl-5-methyl-2-(trifluoromethyl)-4,7-dihydropyrazolo[1,5-a]pyrimidine-6-sulfonamide] | 76.2% | –
CCN(CC)S(=O)(=O)C1=C(C)Nc2cc(C(F)(F)F)nn2C1c1ccc(Cl)c(Cl)c1 (single isomer, unassigned) [Example 64 Isomer 2, 7-(3,4-Dichlorophenyl)-N,N-diethyl-5-methyl-2-(trifluoromethyl)-4,7-dihydropyrazolo[1,5-a]pyrimidine-6-sulfonamide] | – | 60%
CC1=C(S(=O)(=O)N2CCCCC2)C(c2ccc(Cl)c(Cl)c2)n2nc(C(F)(F)F)cc2N1 (single isomer, unassigned) [Example 65 Isomer 1, 7-(3,4-Dichlorophenyl)-5-methyl-6-(piperidin-1-ylsulfonyl)-2-(trifluoromethyl)-4,7-dihydropyrazolo[1,5-a]pyrimidine] | 81% | –
CC1=C(S(=O)(=O)N2CCCCC2)C(c2ccc(Cl)c(Cl)c2)n2nc(C(F)(F)F)cc2N1 (single isomer, unassigned) [Example 65 Isomer 2, 7-(3,4-Dichlorophenyl)-5-methyl-6-(piperidin-1-ylsulfonyl)-2-(trifluoromethyl)-4,7-dihydropyrazolo[1,5-a]pyrimidine] | – | 78%
CC1=C(S(=O)(=O)N2CCOCC2)C(c2ccc(Cl)c(Cl)c2)n2nc(C(F)(F)F)cc2N1 (single isomer, unassigned) [Example 66 Isomer 1, 7-(3,4-Dichlorophenyl)-5-methyl-6-(morpholinosulfonyl)-2-(trifluoromethyl)-4,7-dihydropyrazolo[1,5-a]pyrimidine] | 51% | –
CC1=C(S(=O)(=O)N2CCOCC2)C(c2ccc(Cl)c(Cl)c2)n2nc(C(F)(F)F)cc2N1 (single isomer, unassigned) [Example 66 Isomer 2, 7-(3,4-Dichlorophenyl)-5-methyl-6-(morpholinosulfonyl)-2-(trifluoromethyl)-4,7-dihydropyrazolo[1,5-a]pyrimidine] | – | 49%
CC1=C(S(=O)(=O)N2CCCC2)C(c2ccc(Cl)cc2)n2nc(C(F)(F)F)cc2N1 (single isomer, unassigned) [Example 67 Isomer 1, 7-(4-Chlorophenyl)-5-methyl-6-(pyrrolidin-1-ylsulfonyl)-2-(trifluoromethyl)-4,7-dihydropyrazolo[1,5-a]pyrimidine] | 60% | –
CC1=C(S(=O)(=O)N2CCCC2)C(c2ccc(Cl)cc2)n2nc(C(F)(F)F)cc2N1 (single isomer, unassigned) [Example 67 Isomer 2, 7-(4-Chlorophenyl)-5-methyl-6-(pyrrolidin-1-ylsulfonyl)-2-(trifluoromethyl)-4,7-dihydropyrazolo[1,5-a]pyrimidine] | – | 54%
CC1=C(S(=O)(=O)N2CCCC2)C(c2ccc(Cl)c(Cl)c2)n2nc(C)c(Cl)c2N1 (single isomer, unassigned) [Example 69 Isomer 1, 3-Chloro-7-(3,4-dichlorophenyl)-2,5-dimethyl-6-(pyrrolidin-1-ylsulfonyl)-4,7-dihydropyrazolo[1,5-a]pyrimidine] | 40% | –
CC1=C(S(=O)(=O)N2CCCC2)C(c2ccc(Cl)c(Cl)c2)n2nc(C)c(Cl)c2N1 (single isomer, unassigned) [Example 69 Isomer 2, 3-Chloro-7-(3,4-dichlorophenyl)-2,5-dimethyl-6-(pyrrolidin-1-ylsulfonyl)-4,7-dihydropyrazolo[1,5-a]pyrimidine] | – | 40%
CC1=C(C(=O)N(C)S(=O)(=O)c2ccccc2)C(c2ccc(Cl)c(Cl)c2)n2nc(C)cc2N1 (single isomer, unassigned) [Example 79 Isomer 1, 7-(3,4-Dichlorophenyl)-N,2,5-trimethyl-N-(phenylsulfonyl)-4,7-dihydropyrazolo[1,5-a]pyrimidine-6-carboxamide] | – | 25%
CC1=C(C(=O)N(C)S(=O)(=O)c2ccccc2)C(c2ccc(Cl)c(Cl)c2)n2nc(C)cc2N1 (single isomer, unassigned) [Example 79 Isomer 2, 7-(3,4-Dichlorophenyl)-N,2,5-trimethyl-N-(phenylsulfonyl)-4,7-dihydropyrazolo[1,5-a]pyrimidine-6-carboxamide] | – | 88%
CC1=C(C(=O)N(C)S(=O)(=O)c2ccc(F)cc2)C(c2ccc(Cl)c(Cl)c2)n2nc(C)cc2N1 (single isomer, unassigned) [Example 80 Isomer 1, 7-(3,4-Dichlorophenyl)-N-(4-fluorophenylsulfonyl)-N,2,5-trimethyl-4,7-dihydropyrazolo[1,5-a]pyrimidine-6-carboxamide] | – | 37%
